The assay deals with CB CD34+CD38− HSC. The experiment in a line: In vitro proliferation of sorted cord blood CD34+CD38− HSC with 6 growth factor stimulation, cells counted after 6 days. In kind it is cell-based, human. Particulars: 300 per well, Cellgro supplemented with 6 factors, after 6 d, versus 6 factors alone. Here is the method: Human cord blood cells were sorted by FACS and plated into cell culture wells (300 cells/well) in the presence of Cellgro supplemented with 6 growth factors G-CSF, […], FL-T3 ligand, (FLT3-L), MGDF (all 100 ng/ml), IL-6 and IL-3 (both 10 ng/ml). In addition, α9β1 antibody (Chemicon), thrombin-cleaved bovine Opn (R & D Systems, Minneapolis, Minn., USA), or Opn inhibiting peptide [SVVYGLR-NH2] (Auspep) (SEQ ID NO:1) were added. All cells were cultured at 37° C. in 5% O2, 10% CO2 and 85% N2. Cells were grown for 6 days prior to counting.
Thrombin-cleaved Opn was prepared by incubating 24 μg bovine Opn in 20 mM Tris-HCl (pH 7.6), 80 mM NaCl, 2 mM CaCl2 and 0.1 units of thrombin (CSL, Parkville, Australia), for 10 min at 37° C.

Where no end group is shown, it is not given here.

As to SVVYGLR-NH2 [osteopontin peptide], the cell proliferation result is recorded as “significant inhibition of cell proliferation”.

These data come from patent US8071367B2, “Selecting, culturing and creating lineage committed hematopoietic stem cells” (Commonwealth Scientific and Industrial Research Organisation, priority 2005, dated 2011).
